Details: 313.15 K, Liquid, Vibrating tube method

FC(C(F)(F)F)C(F)(F)F [1,1,1,2,3,3,3-heptafluoropropane]
Details	mass density [kg/m3]
9544 kPa	1394.8
9564 kPa	1394.9
9591 kPa	1395
9619 kPa	1395.3
9823 kPa	1396.6
9856 kPa	1396.8
9892 kPa	1397
9921 kPa	1397.3
9953 kPa	1397.4
9987 kPa	1397.4
10010 kPa	1397.7
10062 kPa	1398.1
10094 kPa	1398.2
10123 kPa	1398.4
10151 kPa	1398.5
10183 kPa	1398.9
10211 kPa	1399.1
10247 kPa	1399.1
10272 kPa	1399.3
10301 kPa	1399.5
10332 kPa	1399.8
10361 kPa	1400
10389 kPa	1400
10421 kPa	1400.3
10450 kPa	1400.4
10482 kPa	1400.8
10519 kPa	1401
10547 kPa	1401.1
10580 kPa	1401.3
10609 kPa	1401.5
10646 kPa	1401.7
10680 kPa	1401.9
10709 kPa	1402.1
10743 kPa	1402.3
10780 kPa	1402.5
10813 kPa	1402.7
10838 kPa	1402.9
10871 kPa	1403.1
10899 kPa	1403.2
10928 kPa	1403.5
10956 kPa	1403.5
10981 kPa	1403.7
11015 kPa	1404.1
11048 kPa	1404.2
11069 kPa	1404.4
11102 kPa	1404.4
11127 kPa	1404.6
11164 kPa	1404.9
11193 kPa	1405
11222 kPa	1405.3
11252 kPa	1405.4
11278 kPa	1405.5
11317 kPa	1405.7
11360 kPa	1405.9
11399 kPa	1406.3
11424 kPa	1406.4
11461 kPa	1406.5
11486 kPa	1406.8
11518 kPa	1406.9
11544 kPa	1407.2
11578 kPa	1407.4
11628 kPa	1407.6
11692 kPa	1408
11726 kPa	1408.2
11751 kPa	1408.3
11788 kPa	1408.5
11818 kPa	1408.8
11860 kPa	1408.9
11889 kPa	1409.2
11927 kPa	1409.3
11969 kPa	1409.5
11998 kPa	1409.7
12023 kPa	1409.9
12048 kPa	1410.1
12069 kPa	1410.1
12099 kPa	1410.3
12128 kPa	1410.6
12165 kPa	1410.9
12206 kPa	1410.9
12231 kPa	1411.1
12265 kPa	1411.4
12294 kPa	1411.4
12323 kPa	1411.6
12344 kPa	1411.8
12373 kPa	1411.9
12407 kPa	1412.1
12448 kPa	1412.4
12477 kPa	1412.4
12510 kPa	1412.8
12532 kPa	1412.9
12565 kPa	1413.1
12616 kPa	1413.4
12650 kPa	1413.4
12689 kPa	1413.8
12723 kPa	1413.9
12749 kPa	1414.1
12786 kPa	1414.2
12813 kPa	1414.5
12852 kPa	1414.7
12888 kPa	1414.9
12924 kPa	1415.1
12959 kPa	1415.3
12986 kPa	1415.4

Reference: the NIST ThermoML archive (doi:10.1021/je700260f)
